System: T-47D spheroids with HUVEC/MSC, viability
Experiment: Anticancer human tumor T-47D cell line growth inhibition [PI3K];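 also: spheroids exposed to agents for seven days before reading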;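 as to viability, T/C: percent of DMSO vehicle control luminescence so 100% = untreated growth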
Details: for IC50: curve of first compound; for viability, T/C: stronger effect = lower value
Method in brief: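 Spheroid viability read-out. Co-cultures contained the tumor line plus HUVEC and human MSCs. Each agent was paired with a PI3K inhibitor (inavolisib, alpelisib, duvelisib, copanlisib) across half-log dilutions starting at clinical Cmax, or at 10 microM when Cmax was unknown.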

[1] = second compound 0.0316 µM, first compound 0.0316 µM
[2] = second compound 0.0316 µM, first compound 0.1 µM
[3] = second compound 0.0316 µM, first compound 0.316 µM
[4] = second compound 0.0316 µM, first compound 1 µM
[5] = second compound 0.0316 µM, first compound 3.16 µM
[6] = second compound 0.0316 µM, first compound 10 µM
[7] = second compound 0.1 µM, first compound 0.0316 µM
[8] = second compound 0.1 µM, first compound 0.1 µM
[9] = second compound 0.1 µM, first compound 0.316 µM
[10] = second compound 0.1 µM, first compound 1 µM
[11] = second compound 0.1 µM, first compound 3.16 µM
[12] = second compound 0.1 µM, first compound 10 µM
[13] = second compound 0.316 µM, first compound 0.0316 µM
[14] = second compound 0.316 µM, first compound 0.1 µM
[15] = second compound 0.316 µM, first compound 0.316 µM
[16] = second compound 0.316 µM, first compound 1 µM
[17] = second compound 0.316 µM, first compound 3.16 µM
[18] = second compound 0.316 µM, first compound 10 µM
[19] = second compound 1 µM, first compound 0.0316 µM
[20] = second compound 1 µM, first compound 0.1 µM
[21] = second compound 1 µM, first compound 0.316 µM
[22] = second compound 1 µM, first compound 1 µM
[23] = second compound 1 µM, first compound 3.16 µM
[24] = second compound 1 µM, first compound 10 µM
[25] = second compound 3.16 µM, first compound 0.0316 µM
[26] = second compound 3.16 µM, first compound 0.1 µM
[27] = second compound 3.16 µM, first compound 0.316 µM
[28] = second compound 3.16 µM, first compound 1 µM
[29] = second compound 3.16 µM, first compound 3.16 µM
[30] = second compound 3.16 µM, first compound 10 µM
[31] = second compound 10 µM, first compound 0.0316 µM
[32] = second compound 10 µM, first compound 0.1 µM
[33] = second compound 10 µM, first compound 0.316 µM
[34] = second compound 10 µM, first compound 1 µM
[35] = second compound 10 µM, first compound 3.16 µM
[36] = second compound 10 µM, first compound 10 µM

Work on C#Cc1c(F)ccc2cc(O)cc(-c3ncc4c(N5CC6CCC(C5)N6)nc(OCC56CCCN5CC(F)C6)nc4c3F)c12 (stereo unspecified) + COc1c(OCCCN2CCOCC2)ccc2c3n(c(=NC(=O)c4cnc(N)nc4)nc12)CCN3 yielded an IC50 (second compound 0.00316 µM) of over 10 µM, an IC50 (second compound 0.01 µM) of over 10 µM and an IC50 (second compound 0.0316 µM) of over 10 µM. It also gave an IC50 (second compound 0.1 µM) of under 0.0316 µM, an IC50 (second compound 0.316 µM) of under 0.0316 µM and an IC50 (second compound 1 µM) of under 0.0316 µM. For the same compound, the viability, T/C (second compound 0.00316 µM, first compound 0.0316 µM) was 102%, the viability, T/C (second compound 0.00316 µM, first compound 0.1 µM) was 93.1% and the viability, T/C (second compound 0.00316 µM, first compound 0.316 µM) was 93%. It also gave a viability, T/C (second compound 0.00316 µM, first compound 1 µM) of 82.5%, a viability, T/C (second compound 0.00316 µM, first compound 3.16 µM) of 116% and a viability, T/C (second compound 0.00316 µM, first compound 10 µM) of 109%. For the same compound, the viability, T/C (second compound 0.01 µM, first compound 0.0316 µM) was 95.1%, the viability, T/C (second compound 0.01 µM, first compound 0.1 µM) was 99.9% and the viability, T/C (second compound 0.01 µM, first compound 0.316 µM) was 105%. It also gave a viability, T/C (second compound 0.01 µM, first compound 1 µM) of 99.5%, a viability, T/C (second compound 0.01 µM, first compound 3.16 µM) of 114% and a viability, T/C (second compound 0.01 µM, first compound 10 µM) of 111%. It also gave a viability, T/C [1] of 80.5%, a viability, T/C [2] of 78.8% and a viability, T/C [3] of 79.8%. It also gave a viability, T/C [4] of 84.8%, a viability, T/C [5] of 79.2% and a viability, T/C [6] of 87.5%. The viability, T/C [7] was 45.1%, the viability, T/C [8] was 46.4% and the viability, T/C [9] was 46.8%. For the same compound, the viability, T/C [10] was 49.2%, the viability, T/C [11] was 39.6% and the viability, T/C [12] was 49.5%. The viability, T/C [13] was 20.2%, the viability, T/C [14] was 14.5% and the viability, T/C [15] was 20.5%. The viability, T/C [16] was 22.3%, the viability, T/C [17] was 22.3% and the viability, T/C [18] was 27.1%. The viability, T/C [19] was 7.11%, the viability, T/C [20] was 6.61% and the viability, T/C [21] was 8.19%. For the same compound, the viability, T/C [22] was 8.13%, the viability, T/C [23] was 5.78% and the viability, T/C [24] was 9.52%.

Work on CCCS(=O)(=O)Nc1ccc(F)c(C(=O)c2c[nH]c3ncc(-c4ccc(Cl)cc4)cc23)c1F + CC(Nc1ncnc2nc[nH]c12)c1cc2cccc(Cl)c2c(=O)n1-c1ccccc1 yielded an IC50 (second compound 0.0316 µM) of over 10 µM, an IC50 (second compound 0.1 µM) of over 10 µM and an IC50 (second compound 0.316 µM) of 8.46 µM. It also gave an IC50 (second compound 1 µM) of over 10 µM, an IC50 (second compound 3.16 µM) of 9.93 µM and an IC50 (second compound 10 µM) of 9.51 µM. It also gave a viability, T/C [1] of 114%, a viability, T/C [2] of 98.7% and a viability, T/C [3] of 84.7%. The viability, T/C [4] was 98.4%, the viability, T/C [5] was 88.6% and the viability, T/C [6] was 53%. The viability, T/C [7] was 84.5%, the viability, T/C [8] was 96.1% and the viability, T/C [9] was 105%. The viability, T/C [10] was 84.8%, the viability, T/C [11] was 104% and the viability, T/C [12] was 52.1%. The viability, T/C [13] was 107%, the viability, T/C [14] was 87.7% and the viability, T/C [15] was 109%. It also gave a viability, T/C [16] of 83.8%, a viability, T/C [17] of 92% and a viability, T/C [18] of 42.9%. The viability, T/C [19] was 97.2%, the viability, T/C [20] was 106% and the viability, T/C [21] was 89.2%. It also gave a viability, T/C [22] of 112%, a viability, T/C [23] of 85.6% and a viability, T/C [24] of 50.3%. The viability, T/C [25] was 85.5%, the viability, T/C [26] was 104% and the viability, T/C [27] was 73.6%. It also gave a viability, T/C [28] of 84.8%, a viability, T/C [29] of 85.3% and a viability, T/C [30] of 49.8%. It also gave a viability, T/C [31] of 84.7%, a viability, T/C [32] of 82.8% and a viability, T/C [33] of 92.2%. It also gave a viability, T/C [34] of 72.7%, a viability, T/C [35] of 74.7% and a viability, T/C [36] of 48.2%.

Cn1ncc(Cl)c1-c1cc(C(=O)NC(CN)Cc2cccc(F)c2)sc1Cl (stereo unspecified) + CC(Nc1ncnc2nc[nH]c12)c1cc2cccc(Cl)c2c(=O)n1-c1ccccc1 was tested, and the IC50 (second compound 0.0316 µM) was over 10 µM, the IC50 (second compound 0.1 µM) was over 10 µM and the IC50 (second compound 0.316 µM) was over 10 µM. It also gave an IC50 (second compound 1 µM) of over 10 µM, an IC50 (second compound 3.16 µM) of over 10 µM and an IC50 (second compound 10 µM) of over 10 µM. It also gave a viability, T/C [1] of 101%, a viability, T/C [2] of 101% and a viability, T/C [3] of 84.2%. It also gave a viability, T/C [4] of 76.6%, a viability, T/C [5] of 64.2% and a viability, T/C [6] of 66.6%. The viability, T/C [7] was 100%, the viability, T/C [8] was 79.2% and the viability, T/C [9] was 80.2%. For the same compound, the viability, T/C [10] was 76.9%, the viability, T/C [11] was 70.8% and the viability, T/C [12] was 66.6%. The viability, T/C [13] was 104%, the viability, T/C [14] was 89.1% and the viability, T/C [15] was 91.5%. It also gave a viability, T/C [16] of 68.1%, a viability, T/C [17] of 72.4% and a viability, T/C [18] of 68.3%. The viability, T/C [19] was 103%, the viability, T/C [20] was 94.7% and the viability, T/C [21] was 81.2%. The viability, T/C [22] was 67.1%, the viability, T/C [23] was 58.7% and the viability, T/C [24] was 74.1%. It also gave a viability, T/C [25] of 82.9%, a viability, T/C [26] of 99.3% and a viability, T/C [27] of 79.9%. The viability, T/C [28] was 57.6%, the viability, T/C [29] was 72.8% and the viability, T/C [30] was 69.1%. The viability, T/C [31] was 97.8%, the viability, T/C [32] was 92.2% and the viability, T/C [33] was 77.5%. For the same compound, the viability, T/C [34] was 68.4%, the viability, T/C [35] was 66.9% and the viability, T/C [36] was 71.4%.

— PubChem BioAssay AID1963959 (Molecular Pharmacology Branch, DTP, NCI, 2024)
